Results published in patent US6548505B1, “Radioprotectors” (Peter MacCallum Cancer Institute, priority 1995, dated 2003).
“And” between values parts separate entries of the source, which are not always exact repeats. Equal entries are not always repeated.

Key:
V79 cells [1] = experiment: Cytotoxicity, clonogenic survival of V79 cells without irradiation
Method: (§1) Monolayers of V79 cells were maintained in 25 cm^2 Falcon plastic flasks in alpha-MEM medium with 10% foetal calf serum (FCS). Log phase cultures were treated by adding the required amount of Hoechst 33258, Hoechst 33342 or para dimethylamino Hoechst (25-500 nmoles) dissolved in 50 μL 10 μM acetic acid in 50% methanol. The flasks were inverted immediately prior to adding the compound to ensure complete mixing of the compound with the medium, before contact with the monolayer.
(§2) After 2 hours incubation at 37° C., the cells were harvested and assayed for clonogenic survival. […] All clonogenic survival results are expressed relative to the untreated controls.
(§3) Hoechst 33258, Hoechst 33342 or para dimethylamino Hoechst was added to the media of monolayers of V79 cells, to the indicated final concentrations. […] All cultures were held for a further one hour prior to plating for clonogenic survival.

V79 cells [2] = experiment: Radioprotection, clonogenic survival of irradiated V79 cells; type: cell-based; conditions: for DMF: survival curves FIG. 3; for Protector plus irradiation (12 Gy), survival fraction relative to untreated control cells / Protection Factor: 12 Gy; for Protection Factor: ratio of survival fractions with and without protector
Method: as §1, §2
Cultures were irradiated in a 137Cs Gammacell-40 (Atomic Energy of Canada Ltd.) at a dose rate of 0.84 Gy/min. Ligand-treated cells were irradiated two hours after starting the exposure to the ligand. In all cases, the clonogenic survival was delayed until one hour after completion of irradiation.
as §3
Mono layer cultures of V79 cells were exposed to various concentrations of the three radioprotectors, as described in (a) above. After two hours, the cells were chilled and kept cold during the isolation of nuclei, using 0.08% w.v Triton X-100. After counting an aliquot of the nuclear suspension, the ligands were extracted and quantitated by spectrophotometry and the nuclear content calculated. The survival results shown in the lower part of FIG. 1 were replotted using the nuclear uptake data and the results are shown in FIG. 2.
The first three columns show survival fraction relative to that for untreated control cells. Each row represents a separate experiment and the figures are the means of duplicates. The figures in square brackets is the mean of a number of the results of a number of experiments done over the relevant period. The protection factor is the ratio of survival fractions for irradiated cells, with and without protector.
A number of bibenzimidazoles represented by formula (I) have been synthesised and assayed for radioprotective activity in cell culture. Assays were conducted using V79 fibroblasts and involved exposure of the cells to a single radiation dose (12Gy) and comparison of the clonogenic survival with and without the inclusion of the protector in the cell culture medium. The ratio of the survival fractions (with protector/without), designated the protection ratio (PR12Gy), provides a measure of the extent of radioprotection. The experimental protocol adopted was as in Example 12.

pig skin = experiment: Pig skin studies, topical radioprotector cream; type: in vivo; conditions: cream 0.15 g/field
Text: The pig skin model is described by J. W. Hopewell^4. The structural similarities between human and pig skin underlie the relevance of the model.
Although some pig skin studies involve external beam irradiation, a particularly convenient radiation source is discs containing β-emitting isotopes, typically ^90Sr. The sources can be held to the skin, or for higher doses, taped to the animal, for appropriate periods of time to deliver the required dose. The discs are typically about 2 cm in diameter so that an array of different doses can be arranged on the flanks of a single animal.
The “acute” reactions (3-9 weeks after irradiation) result from radiation damage to the basal cells of the epidermis, and are manifest as erythema, and dry and moist desquamation. The “late” reactions (10-16 weeks) results from radiation effects to the dermal vascular connective tissue, characterized by a dusky mauve erythema and necrosis. The scoring system is well described.
The radioprotectors were formulated in a propylene glycol cream containing 10% DMSO. The extent and kinetics of penetration were followed by fluorescence microscopy of frozen skin sections, to enable optimization of delivery.
Radiation dose response curves were constructed for radiation only fields. The results of fields with radioprotector creams are shown in Table 3 below, with the respective cream (vehicle) only controls. The decrease in extent of skin reaction for the test fields is evident.

[3] = system: Chinese Hamster Ovary (CHO) fibroblasts; experiment: Radioprotection survival curves of cultured CHO cells (FIG. 7, Table 5); type: cell-based; conditions: ratio of doses reducing survival to 10% of control
Text: where S is the survival fraction at dose D Gy, and α and β are constants.
The fitted values of α and β were used to calculate the radiation doses (D0.1) corresponding to a survival fraction of 0.1. The ratio of the D0.1 values with and without protector, then provided the Dose Modification Factor (DMF) for each compound:
DMF=D0.1(with protector)/D0.1(without)

mouse lung = experiment: Mouse lung model, bilateral lung irradiation; type: in vivo; conditions: maximum breathing rate up to 24 weeks, FIG. 5
Text: Irradiation of mouse lung, at appropriate doses, results in fatal loss of lung function. The onset of damage is signalled by an increase in breathing rate. The dose response and kinetics of loss of lung function following irradiation of both lungs varies between different mouse strains.
The procedures for irradiation and measurement of breathing rate were essentially as described by Travis et al^3. Groups of 5-6 male DBA/2J mice were anaesthetised and irradiated with 250 kV X-rays (single dose) using a jig that shielded all the body except for both lungs. A thin midline lead strip was used to shield spinal cord between the lungs.
At weekly intervals, from 4-6 weeks post-irradiation, the breathing rate was measured for each mouse. The mouse was held in a small chamber equipped with a microphone and the output analysed on a PC. The mean breathing rate was determined for each of 3 periods of 2 seconds and the average of these readings was recorded as the breathing rate. The recorded breathing rates for each group of mice were averaged and the standard error calculated.
All mice were monitored daily for signs of respiratory distress (hunched appearance, raised hair), with particular attention being paid to those mice showing elevated breathing rate.
The radioprotector (2 mg/25 g mouse) was administered 30 minutes prior to the single irradiation dose.

HT29 = experiment: Radioprotection DMF in HT29 cells (Table 1); type: cell-based; conditions: HT29, 8.7 μM
[4] = system: mouse brain endothelial cells; experiment: Protection of mouse brain endothelial cells; type: in vivo; conditions: 80 mg/kg i.v. 10 minutes prior to radiation, within 24 hours, FIG. 6
Method: Irradiation of rodent brain results in the loss of a subset of brain endothelial cells within 24 hours after irradiation.
Endothelial cell numbers were scored as described by Lyubimova et al. Each point represents the mean for 3-4 mice; 3 sections were scored for each animal, a total of 30 fields were scored for each section, and the figure indicates the average number of cells per field. The error bars indicate standard errors.

CHO = experiment: Radioprotection DMF in CHO cells (Table 1, existing radioprotector); type: cell-based; conditions: 4 mM
[5] = V79 cells, no irradiation, clonogenic survival, FIG. 1

Structure (SMILES): CN1CCN(c2ccc3[nH]c(-c4ccc5[nH]c(-c6ccc(N(C)C)cc6)nc5c4)nc3c2)CC1 [Compound 1, 4Dimethylamino-1-[5′-{5′″-(4′″-methylpiperazin-1′″-yl)benzimidazol-2″-yl]benzimidazol-2′-yl}benzene]
- concentration up to which there is no effect on survival (V79 cells [1]; [5]): up to 100 μM
- DMF (V79 cells [2]; V79, 84 μM): 1.7
- Protection ratio 12Gy, Exp 8 (V79 cells [2]; V79, 12Gy 137Cs-γ, 20 μM): 5.1
- Protection ratio 12Gy, Exp 8 (V79 cells [2]; V79, 12Gy 137Cs-γ, 40 μM): 7.7
- Protection ratio 12Gy, Exp 8 (V79 cells [2]; V79, 12Gy 137Cs-γ, 50 μM): 8.0
- radioprotective potency, survival after 12Gy in terms of nuclear content of the radioprotector (V79 cells [2]; V79 cells, 12Gy, uptake per 10^6 nuclei, FIG. 2): more potent radioprotector
- Fields showing moist desquamation (10 weeks post-Irr.) # (pig skin; 36 Gy, 5000 μg/g): 4/7
- Fields showing moist desquamation (10 weeks post-Irr.) % (pig skin; 36 Gy, 5000 μg/g): 57%

Structure (SMILES): CN(C)c1ccc(-c2nc3cc(-c4nc5cc(N6CCCCC6)ccc5[nH]4)ccc3[nH]2)cc1 [Compound 2, 4-Dimethylamino-1-{5′-[5″-(piperidin-1′″-yl)benzimidazol-2″-yl]benzimidazol-2′-yl}benzene]
- Protector only (no irradiation), survival fraction relative to untreated control cells (V79 cells [1]; 17 μM): 0.89 and 0.81
- Protector plus irradiation (12 Gy), survival fraction relative to untreated control cells (V79 cells [2]; 17 μM): 0.062 and 0.059
- Protection Factor (V79 cells [2]; 17 μM): 2.8 and 2.7

Structure (SMILES): Cc1cc(N(C)C)ccc1-c1nc2cc(-c3nc4cc(N5CCN(C)CC5)ccc4[nH]3)ccc2[nH]1 [Compound 5, ortho methyl para dimethylamino Hoechst]
- Protector only (no irradiation), survival fraction relative to untreated control cells (V79 cells [1]; 20 μM): 0.71 and 0.63 and 0.88
- Protector plus irradiation (12 Gy), survival fraction relative to untreated control cells (V79 cells [2]; 20 μM): 0.15 and 0.145 and 0.12
- Protection Factor (V79 cells [2]; 20 μM): 4.4 and 4.0 and 4.3
- DMF (V79 cells [2]; V79, 30 μM): 2.1
- Protection ratio 12Gy, Exp 5 (V79 cells [2]; V79, 12Gy 137Cs-γ, 30 μM): 17.4
- Protection ratio 12Gy, Exp 10 (V79 cells [2]; V79, 12Gy 137Cs-γ, 30 μM): 18.7
- DMF ([3]; 30 μM): 1.66
- DMF, maximum breathing rate (mouse lung): 1.4
- Fields showing moist desquamation (10 weeks post-Irr.) # (pig skin; 40 Gy, 5000 μg/g): 4/8
- Fields showing moist desquamation (10 weeks post-Irr.) % (pig skin; 40 Gy, 5000 μg/g): 50%
- Fields showing moist desquamation (10 weeks post-Irr.) # (pig skin; 44 Gy, 5000 μg/g): 4/8
- Fields showing moist desquamation (10 weeks post-Irr.) % (pig skin; 44 Gy, 5000 μg/g): 50%

Structure (SMILES): CCOc1ccc(-c2nc3cc(-c4nc5cc(N6CCN(C)CC6)ccc5[nH]4)ccc3[nH]2)c(C)c1 [Compound 6, 4-Ethoxy-2-methyl{5′-[5″(4′″-methylpiperazin-1′″-yl)benzimidazol-2″-yl]benzimidazol-2′-yl}benzene]
- Protection ratio 12Gy, Exp 3 (V79 cells [2]; V79, 12Gy 137Cs-γ, 20 μM): 8.0

Structure (SMILES): CCOc1ccc(-c2nc3cc(-c4nc5cc(N6CCN(C)CC6)ccc5[nH]4)ccc3[nH]2)c(C(C)C)c1 [Compound 7, 4-Ethoxy-2i-propyl-1-{5′-[5″-(4′″-methylpiperazin-1′″-yl)benzimidazol-2′-yl]benzimidazol-2′-yl}benzene]
- Protection ratio 12Gy, Exp 4 (V79 cells [2]; V79, 12Gy 137Cs-γ, 20 μM): 10.8
- Protection ratio 12Gy, Exp 4 (V79 cells [2]; V79, 12Gy 137Cs-γ, 30 μM): 10.4
- Protection ratio 12Gy, Exp 5 (V79 cells [2]; V79, 12Gy 137Cs-γ, 30 μM): 11.3
- Protection ratio 12Gy, Exp 4 (V79 cells [2]; V79, 12Gy 137Cs-γ, 40 μM): 14.2
- Protection ratio 12Gy, Exp 5 (V79 cells [2]; V79, 12Gy 137Cs-γ, 40 μM): 13.2
- Protection ratio 12Gy, Exp 5 (V79 cells [2]; V79, 12Gy 137Cs-γ, 50 μM): 15.2
- DMF ([3]; 20 μM): 1.42

Structure (SMILES): CN1CCN(c2ccc3[nH]c(-c4ccc5[nH]c(-c6cccc(N(C)C)c6)nc5c4)nc3c2)CC1 [Compound 9, 3-N,N-Dimethylamino-1-{5′-[5″-(4′″-methylpiperazin-1′″-yl)benzimidazol-2″-yl]benzimidazol-2′-yl}benzene]
- Protection ratio 12Gy, Exp 6 (V79 cells [2]; V79, 12Gy 137Cs-γ, 20 μM): 3.6
- Protection ratio 12Gy, Exp 7 (V79 cells [2]; V79, 12Gy 137Cs-γ, 30 μM): 7.6
- Protection ratio 12Gy, Exp 7 (V79 cells [2]; V79, 12Gy 137Cs-γ, 40 μM): 7.2
- Protection ratio 12Gy, Exp 1 (V79 cells [2]; V79, 12Gy 137Cs-γ, 50 μM): 9.7
- Protection ratio 12Gy, Exp 2 (V79 cells [2]; V79, 12Gy 137Cs-γ, 50 μM): 9.5
- Protection ratio 12Gy, Exp 7 (V79 cells [2]; V79, 12Gy 137Cs-γ, 50 μM): 8.2

Structure (SMILES): CCOc1ccc(-c2cc3ccc(-c4nc5cc(N6CCN(C)CC6)ccc5[nH]4)cc3[nH]2)cc1 [Compound 10, 4-Ethoxy-1-{6′-[5″-(4′″-methylpiperazin-1′″-yl)benzimidazol-2″-yl]indol-2′-yl}benzene]
- Protection ratio 12Gy, Exp 9 (V79 cells [2]; V79, 12Gy 137Cs-γ, 20 μM): 1.5
- Protection ratio 12Gy, Exp 9 (V79 cells [2]; V79, 12Gy 137Cs-γ, 40 μM): 1.4

Structure (SMILES): CCOc1ccc(-c2nc3ccc(-c4nc5ccc(N6CCN(C)CC6)cc5[nH]4)cc3[nH]2)cc1 [Hoechst 33342, 4-ethoxy-1-{5′[5′″-(4′″-methylpiperazin-1′″-yl)benzimidazol-2″-yl]benzimidazol-2′-yl}benzene, reference compound]
- Protector only (no irradiation), survival fraction relative to untreated control cells (V79 cells [1]; 21 μM): 0.80 and 0.87 and 0.76
- concentration above which the protector becomes cytotoxic (V79 cells [1]; [5]): 20 to 30 µM
- Protector plus irradiation (12 Gy), survival fraction relative to untreated control cells (V79 cells [2]; 21 μM): 0.05 and 0.06 and 0.051
- Protection Factor (V79 cells [2]; 21 μM): 2.3 and 2.7
- DMF (V79 cells [2]; V79, 21 μM): 1.3
- Protection ratio 12Gy, Exp 1 (V79 cells [2]; V79, 12Gy 137Cs-γ, 20 μM): 7.2
- Protection ratio 12Gy, Exp 4 (V79 cells [2]; V79, 12Gy 137Cs-γ, 20 μM): 11.8
- Protection ratio 12Gy, Exp 9 (V79 cells [2]; V79, 12Gy 137Cs-γ, 20 μM): 7.1
- DMF (HT29): 1.5
- Fields showing moist desquamation (10 weeks post-Irr.) # (pig skin; 36 Gy, 5000 μg/g): 3/7
- Fields showing moist desquamation (10 weeks post-Irr.) % (pig skin; 36 Gy, 5000 μg/g): 43%
- Fields showing moist desquamation (10 weeks post-Irr.) # (pig skin; 40 Gy, 500 μg/g): 4/6
- Fields showing moist desquamation (10 weeks post-Irr.) % (pig skin; 40 Gy, 500 μg/g): 83%
- loss of endothelial cells of mouse brain after irradiation [4]: protected

Structure (SMILES): NCCCNCCS [WR1065]
- DMF (CHO): 1.9

Structure (SMILES): CN1CCN(c2ccc3[nH]c(-c4ccc5[nH]c(-c6ccc([N+](=O)[O-])cc6)nc5c4)nc3c2)CC1 [para nitro Hoechst, reference compound]
- Protector only (no irradiation), survival fraction relative to untreated control cells (V79 cells [1]; 20 μM): 0.89
- Protector plus irradiation (12 Gy), survival fraction relative to untreated control cells (V79 cells [2]; 20 μM): 0.011
- Protection Factor (V79 cells [2]; 20 μM): [0.5]*
